Test results taken from publication PMC10730845, “Endoxifen downregulates AKT phosphorylation through protein kinase C beta 1 inhibition in ERα+ breast cancer” (NPJ Breast Cancer, 2023).
Values joined by “and” are separate entries in the source; they are usually repeats but may differ in a detail not shown here. Identical values can stand only once.

Assays:
PKCβ1 = PKCβ1 (Homo sapiens, UniProt P05771); test: In vitro kinase assay, PKCβ1 kinase activity; assay type: biochemical; settings: 10 μM ATP, three-fold serial dilution from 50 μM, Fig. 6d
PKC zeta (PKCz) = PKC zeta (PKCz) (Homo sapiens, UniProt Q05513); test: In vitro kinase assay, PKC zeta; assay type: biochemical; settings: 10 μM ATP
Excerpt: (§1) Supplementary Table 4. In vitro kinase assay showing the IC 50 concentration of ENDX and
(§2) of the 12 PKC family members.
(§3) (1 picture or pasted object on this page, not shown here)

PKC iota (PKCi) = PKC iota (PKCi) (Homo sapiens, UniProt P41743); test: In vitro kinase assay, PKC iota; assay type: biochemical; settings: 10 μM ATP
Excerpt: as §1, §2, §3

T47D-LTED cells = test: IncuCyte Annexin V apoptosis assay, T47D-LTED; assay type: cell-based, human; settings: CSS medium, 48 h; 5 µM
Experimental: (§4) MCF7AC1 and T47D-LTED cells were plated at a density of 2000 cells per well in CSS medium for 24 h. Cells were then co-treated for 48 h with vehicle or drug, IncuCyte Annexin V green reagent (#4642, 1:300), an early-stage apoptosis marker, and IncuCyte NucLight rapid red reagent (#4717, 1:500), a dye that stains all cell nuclei red, in CSS medium. MCF7AC1^caAKT cells were plated at a cell density of 2000 cells per well in CSS medium in the absence or presence of cumate for 48 h and then co-treated with vehicle or drug, Annexin V green and NucLight rapid red reagents in the absence or presence of cumate for an additional 48 h in CSS medium.
Supplementary Figure 6. […] Cell viability is assessed by the crystal violet assay. b, MCF7AC1 cells were co-treated with vehicle control or 0.01, 0.1 and 5 µM MK-2206 and IncuCyte Annexin V green and NucLight rapid red reagents in CSS medi um for 48 hours. […]
Cells were plated at a density of 2000 cells per well. c, MCF7AC1 cells were treated with vehicle control or 0.01, 0.1 and 5 µM MK-2206 in CSS medium for 24 hours. […] Cell viability is assessed by the crystal violet assay. f, Parental T47D and T47D-LTED cells were processed for protein lysates. […] Percentage of cells undergoing apoptosis was calculated as mentioned in b. i, T47D-LTED cells were treated with vehicle control or 0.01, 0.1 and 5 µM MK -2206 in CSS medium for 24 hours . […]

MCF7AC1^caAKT cells = test: IncuCyte Annexin V apoptosis assay, MCF7AC1^caAKT; assay type: cell-based, human; settings: CSS medium, 5 µM, 48 h
Experimental: as §4
Molecular cloning was performed for the generation of catalytically active AKT-expressing MCF7AC1 cells. For this purpose, vector pCDNA3.1+ containing an N-terminal SRCMyr signal AKT ORF and C-terminal hemagglutinin (HA)-tag was provided as a kind gift from Dr. Haojie Huang, Ph.D, Mayo Clinic, Rochester, MN. The constitutively active AKT (caAKT)-HA insert was excised using NheI/EcoRV restriction digest, gel purified and cloned into the NheI//PmeI site of an SBI (System biosciences, Palo Alto, CA) vector with modified restriction sites. Sanger sequencing was performed by Azenta/Genewiz, (South Plainfield, NJ) to confirm in frame sequence. […]

[1] = set-up: method as in PMID 24853369, PMID 28977607; settings: low (10 mg/kg) and high (50 mg/kg) doses; cited from earlier work

Sequence of PKCβ1 (P05771 whole entry): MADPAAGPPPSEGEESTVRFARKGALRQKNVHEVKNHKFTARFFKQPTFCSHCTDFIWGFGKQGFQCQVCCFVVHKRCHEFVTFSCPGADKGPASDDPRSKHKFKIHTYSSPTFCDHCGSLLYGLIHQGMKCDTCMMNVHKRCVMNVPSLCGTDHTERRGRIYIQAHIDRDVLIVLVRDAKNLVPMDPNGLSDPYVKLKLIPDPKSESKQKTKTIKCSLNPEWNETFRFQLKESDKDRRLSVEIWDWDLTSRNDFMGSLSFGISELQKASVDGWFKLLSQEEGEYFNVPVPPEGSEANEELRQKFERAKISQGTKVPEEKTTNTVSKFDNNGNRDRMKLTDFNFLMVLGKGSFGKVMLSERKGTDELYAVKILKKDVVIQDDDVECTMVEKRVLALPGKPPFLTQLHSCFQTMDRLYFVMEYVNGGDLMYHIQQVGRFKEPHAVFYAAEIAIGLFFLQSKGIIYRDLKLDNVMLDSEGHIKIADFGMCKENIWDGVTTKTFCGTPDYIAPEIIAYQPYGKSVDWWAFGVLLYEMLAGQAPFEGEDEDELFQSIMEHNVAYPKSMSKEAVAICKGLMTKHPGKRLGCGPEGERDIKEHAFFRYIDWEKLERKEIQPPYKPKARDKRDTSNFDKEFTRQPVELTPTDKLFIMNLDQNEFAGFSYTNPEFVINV
Sequence of PKC zeta (PKCz) (Q05513 whole entry): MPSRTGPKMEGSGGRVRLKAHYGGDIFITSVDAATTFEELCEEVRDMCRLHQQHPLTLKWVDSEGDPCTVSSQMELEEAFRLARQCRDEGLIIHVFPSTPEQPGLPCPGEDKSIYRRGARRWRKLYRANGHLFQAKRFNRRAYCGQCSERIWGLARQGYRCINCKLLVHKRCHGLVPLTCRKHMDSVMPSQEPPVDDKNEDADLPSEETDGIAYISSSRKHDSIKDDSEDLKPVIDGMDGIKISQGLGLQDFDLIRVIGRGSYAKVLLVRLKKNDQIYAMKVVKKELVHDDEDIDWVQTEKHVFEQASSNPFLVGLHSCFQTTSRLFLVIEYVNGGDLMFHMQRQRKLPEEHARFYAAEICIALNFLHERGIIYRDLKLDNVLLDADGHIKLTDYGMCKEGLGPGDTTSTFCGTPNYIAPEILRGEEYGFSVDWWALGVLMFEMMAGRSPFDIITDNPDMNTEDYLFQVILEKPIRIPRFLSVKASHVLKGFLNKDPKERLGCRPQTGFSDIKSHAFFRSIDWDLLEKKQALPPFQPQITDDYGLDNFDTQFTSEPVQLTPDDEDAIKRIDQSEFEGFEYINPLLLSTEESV
Sequence of PKC iota (PKCi) (P41743 whole entry): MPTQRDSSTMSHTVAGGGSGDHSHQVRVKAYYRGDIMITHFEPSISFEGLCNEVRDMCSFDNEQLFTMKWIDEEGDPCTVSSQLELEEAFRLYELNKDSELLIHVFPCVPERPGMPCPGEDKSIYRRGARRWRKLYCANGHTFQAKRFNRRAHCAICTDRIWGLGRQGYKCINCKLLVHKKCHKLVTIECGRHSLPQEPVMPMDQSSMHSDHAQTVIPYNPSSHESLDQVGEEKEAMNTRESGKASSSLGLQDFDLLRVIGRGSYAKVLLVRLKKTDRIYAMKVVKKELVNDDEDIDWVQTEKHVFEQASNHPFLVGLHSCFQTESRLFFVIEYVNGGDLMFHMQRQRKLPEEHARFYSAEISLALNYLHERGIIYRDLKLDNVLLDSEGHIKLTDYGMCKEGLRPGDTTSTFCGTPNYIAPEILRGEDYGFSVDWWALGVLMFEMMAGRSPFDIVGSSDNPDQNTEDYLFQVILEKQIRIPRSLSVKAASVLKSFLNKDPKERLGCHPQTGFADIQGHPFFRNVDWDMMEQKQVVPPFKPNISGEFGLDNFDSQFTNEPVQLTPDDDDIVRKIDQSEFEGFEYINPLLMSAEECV

For `CC/C(=C(\c1ccc(O)cc1)c1ccc(OCCNC)cc1)c1ccccc1` [ENDX, Z-endoxifen], the IC50 (PKCβ1) was 357 nM and 360 nM, the IC50 (PKC zeta (PKCz)) was 48100 nM and the IC50 (PKC iota (PKCi)) was greater than 50000 nM. For the same molecule, the “Effect on apoptosis (annexin V binding, PARP1 cleavage)” value (T47D-LTED cells) was “induced apoptosis”, the Effect on apoptosis (MCF7AC1^caAKT cells; absence of cumate) was “induced apoptosis” and the “Effect of caAKT expression on ENDX-induced apoptosis” value (MCF7AC1^caAKT cells; presence of cumate) was “significantly diminished the ability of ENDX to induce apoptosis”. For the same molecule, the “Effects on the bone” value [1] was “increasing cancellous and cortical bone mass, reducing bone turnover, and protecting against bone loss”.
